Measurements reported in patent US20200017496A1 (priority 2017, published 2020).
Like-named read-outs stand apart in the source and are kept apart here.

What was measured:
Format in all cases: cell-based
[1] = tested on: Klebsiella pneumoniae (KPN) isolates; assay: MIC of compounds alone and combined with antibacterials, broth microdilution (CLSI); conditions: for MIC: Klebsiella pneumoniae
Method in brief: (§1)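 Log-phase isolates at final 5·10^5 CFU/mL in cation-adjusted Mueller-Hinton broth, incubated 16-20 h at 35° C in ambient air. MIC read visually as lowest concentration preventing growth, for compound alone and for antibacterial at each compound concentration.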

[2] = tested on: Providencia stuartii (PST) isolates; assay: as above
Method in brief: as §1

[3] = tested on: Proteus mirabilis (PMI) isolates; assay: microbe, parasite or virus in culture; conditions: for MIC: Proteus mirabilis, ATB alone, read-out: MIC
Method in brief: as §1

## CC(C)(O/N=C(\C(=O)N[C@@H]1C(=O)N2C(C(=O)[O-])=C(C[n+]3ccccc3)CS[C@H]12)c1csc(N)n1)C(=O)O [CAZ, Ceftazidime]
[1]; KPN LIB, AF1 @ 8 μg/mL
  MIC ATB in combination: <=0.25 μg/mL
[1]; KPN UFR22_O, AF1 @ 4 μg/mL
  MIC ATB in combination: <=0.25 μg/mL
[1]; KPN UFR22_O, AF1 @ 8 μg/mL
  MIC ATB in combination: <=0.25 μg/mL
[1]; KPN UFR23, AF1 @ 4 μg/mL
  MIC ATB in combination: <=0.25 μg/mL
[1]; KPN UFR23, AF1 @ 8 μg/mL
  MIC ATB in combination: <=0.25 μg/mL
[1]; KPN UFR24, AF1 @ 4 μg/mL
  MIC ATB in combination: 1 µg/mL
[1]; KPN UFR24, AF1 @ 8 μg/mL
  MIC ATB in combination: 0.5 µg/mL
[1]; KPN UFR25, AF1 @ 4 μg/mL
  MIC ATB in combination: 0.5 µg/mL
[1]; KPN UFR25, AF1 @ 8 μg/mL
  MIC ATB in combination: <=0.25 μg/mL
[1]; KPN UFR27, AF1 @ 4 μg/mL
  MIC ATB in combination: 4 µg/mL
[1]; KPN UFR27, AF1 @ 8 μg/mL
  MIC ATB in combination: 0.5 µg/mL
[1]; KPN UFR28, AF1 @ 4 μg/mL
  MIC ATB in combination: <=0.25 μg/mL
[1]; KPN UFR28, AF1 @ 8 μg/mL
  MIC ATB in combination: <=0.25 μg/mL
[1]; KPN UFR65, AF1 @ 4 μg/mL
  MIC ATB in combination: 2 µg/mL
[1]; KPN UFR65, AF1 @ 8 μg/mL
  MIC ATB in combination: <=0.25 μg/mL
[1]; KPN UFR66, AF1 @ 4 μg/mL
  MIC ATB in combination: 8 µg/mL
[1]; KPN UFR66, AF1 @ 8 μg/mL
  MIC ATB in combination: <=0.25 μg/mL
[1]; KPN UFR67, AF1 @ 4 μg/mL
  MIC ATB in combination: 16 µg/mL
[1]; KPN UFR67, AF1 @ 8 μg/mL
  MIC ATB in combination: 4 µg/mL
[1]; KPN UFR68, AF1 @ 4 μg/mL
  MIC ATB in combination: 4 µg/mL
[1]; KPN UFR68, AF1 @ 8 μg/mL
  MIC ATB in combination: 1 µg/mL
[1]; KPN UFR76, AF1 @ 4 μg/mL
  MIC ATB in combination: 16 µg/mL
[1]; KPN UFR76, AF1 @ 8 μg/mL
  MIC ATB in combination: 16 µg/mL
[1]; KPN UFR77, AF1 @ 4 μg/mL
  MIC ATB in combination: 4 µg/mL
[1]; KPN UFR77, AF1 @ 8 μg/mL
  MIC ATB in combination: 2 µg/mL
[1]; KPN UFR78, AF1 @ 8 μg/mL
  MIC ATB in combination: 32 µg/mL
[1]; KPN UFR79, AF1 @ 4 μg/mL
  MIC ATB in combination: 2 µg/mL
[1]; KPN UFR79, AF1 @ 8 μg/mL
  MIC ATB in combination: 1 µg/mL
[1]; KPN UFR80, AF1 @ 4 μg/mL
  MIC ATB in combination: <=0.25 μg/mL
[1]; KPN UFR80, AF1 @ 8 μg/mL
  MIC ATB in combination: <=0.25 μg/mL
[1]; KPN UFR81, AF1 @ 4 μg/mL
  MIC ATB in combination: 2 µg/mL
[1]; KPN UFR81, AF1 @ 8 μg/mL
  MIC ATB in combination: 0.5 µg/mL
[1]; KPN UFR215, AF1 @ 4 μg/mL
  MIC ATB in combination: <=0.25 μg/mL
[1]; KPN UFR215, AF1 @ 8 μg/mL
  MIC ATB in combination: <=0.25 μg/mL
[1]; KPN UFR216, AF1 @ 4 μg/mL
  MIC ATB in combination: <=0.25 μg/mL
[1]; KPN UFR216, AF1 @ 8 μg/mL
  MIC ATB in combination: <=0.25 μg/mL
[1]; KPN UFR217, AF1 @ 4 μg/mL
  MIC ATB in combination: <=0.25 μg/mL
[1]; KPN UFR217, AF1 @ 8 μg/mL
  MIC ATB in combination: <=0.25 μg/mL
[1]; KPN UFR219, AF1 @ 4 μg/mL
  MIC ATB in combination: 0.5 µg/mL
[1]; KPN UFR219, AF1 @ 8 μg/mL
  MIC ATB in combination: <=0.25 μg/mL
[1]; KPN UFR220, AF1 @ 4 μg/mL
  MIC ATB in combination: 2 µg/mL
[1]; KPN UFR220, AF1 @ 8 μg/mL
  MIC ATB in combination: 1 µg/mL
[1]; KPN UFR221, AF1 @ 4 μg/mL
  MIC ATB in combination: 0.5 µg/mL
[1]; KPN UFR221, AF1 @ 8 μg/mL
  MIC ATB in combination: <=0.25 μg/mL
[1]; KPN UFR222, AF1 @ 4 μg/mL
  MIC ATB in combination: 8 µg/mL
[1]; KPN UFR222, AF1 @ 8 μg/mL
  MIC ATB in combination: 4 µg/mL
[1]; KPN UFR227O, AF1 @ 4 μg/mL
  MIC ATB in combination: 2 µg/mL
[1]; KPN UFR227O, AF1 @ 8 μg/mL
  MIC ATB in combination: 1 µg/mL
[1]; BAA1898
  MIC: 256 µg/mL
[1]; strain KPN 200327 (TEM-1, SHV-1, CTX-M-15, OXA-1), ATB alone, read-out: MIC
  MIC: 32 µg/mL
[1]; strain KPN LIB (SHV-11, OXA-48), ATB alone, read-out: MIC
  MIC: 0.25 µg/mL
[1]; strain KPN UFR22_O (TEM-1, SHV-1, OXA-48), ATB alone, read-out: MIC
  MIC: 2 µg/mL
[1]; strain KPN UFR23 (TEM-1, SHV-1, OXA-48), ATB alone, read-out: MIC
  MIC: 0.5 µg/mL
[1]; strain KPN UFR77 (CMY-2), ATB alone, read-out: MIC
  MIC: 32 µg/mL
[1]; strain KPN UFR79 (DHA-1, OXA-1), ATB alone, read-out: MIC
  MIC: 16 µg/mL
[1]; strain KPN UFR80 (SHV-11, DHA-1, OXA-1), ATB alone, read-out: MIC
  MIC: 0.5 µg/mL
[1]; strain KPN UFR221 (TEM-1, SHV-11, CTX-M-14, DHA-1), ATB alone, read-out: MIC
  MIC: 16 µg/mL
[2]; PST UFR94, AF1 @ 4 μg/mL
  MIC ATB in combination: 0.5 µg/mL
[2]; PST UFR94, AF1 @ 8 μg/mL
  MIC ATB in combination: <=0.25 μg/mL
[2]; PST UFR95, AF1 @ 4 μg/mL
  MIC ATB in combination: 1 µg/mL
[2]; PST UFR95, AF1 @ 8 μg/mL
  MIC ATB in combination: 0.5 µg/mL
[2]; PST UFR235, AF1 @ 4 μg/mL
  MIC ATB in combination: 1 µg/mL
[2]; PST UFR235, AF1 @ 8 μg/mL
  MIC ATB in combination: <=0.25 μg/mL
[2]; Providencia stuartii, strain PST UFR94 (CTX-M-14), ATB alone, read-out: MIC
  MIC: 1 µg/mL
[3]; PMI UFR82, AF1 @ 4 μg/mL
  MIC ATB in combination: <=0.25 μg/mL
[3]; PMI UFR82, AF1 @ 8 μg/mL
  MIC ATB in combination: <=0.25 μg/mL
[3]; PMI UFR120, AF1 @ 4 μg/mL
  MIC ATB in combination: <=0.25 μg/mL
[3]; PMI UFR120, AF1 @ 8 μg/mL
  MIC ATB in combination: <=0.25 μg/mL
[3]; PMI UFR121, AF1 @ 4 μg/mL
  MIC ATB in combination: <=0.25 μg/mL
[3]; PMI UFR121, AF1 @ 8 μg/mL
  MIC ATB in combination: <=0.25 μg/mL
[3]; PMI UFR122, AF1 @ 4 μg/mL
  MIC ATB in combination: <=0.25 μg/mL
[3]; PMI UFR122, AF1 @ 8 μg/mL
  MIC ATB in combination: <=0.25 μg/mL
[3]; PMI UFR123, AF1 @ 4 μg/mL
  MIC ATB in combination: <=0.25 μg/mL
[3]; PMI UFR123, AF1 @ 8 μg/mL
  MIC ATB in combination: <=0.25 μg/mL
[3]; PMI UFR124, AF1 @ 4 μg/mL
  MIC ATB in combination: <=0.25 μg/mL
[3]; PMI UFR124, AF1 @ 8 μg/mL
  MIC ATB in combination: <=0.25 μg/mL
[3]; PMI UFR125, AF1 @ 4 μg/mL
  MIC ATB in combination: <=0.25 μg/mL
[3]; PMI UFR125, AF1 @ 8 μg/mL
  MIC ATB in combination: <=0.25 μg/mL
[3]; PMI UFR126, AF1 @ 4 μg/mL
  MIC ATB in combination: <=0.25 μg/mL
[3]; PMI UFR126, AF1 @ 8 μg/mL
  MIC ATB in combination: <=0.25 μg/mL
[3]; PMI UFR127, AF1 @ 4 μg/mL
  MIC ATB in combination: <=0.25 μg/mL
[3]; PMI UFR127, AF1 @ 8 μg/mL
  MIC ATB in combination: <=0.25 μg/mL
[3]; PMI UFR129, AF1 @ 4 μg/mL
  MIC ATB in combination: <=0.25 μg/mL
[3]; PMI UFR129, AF1 @ 8 μg/mL
  MIC ATB in combination: <=0.25 μg/mL
[3]; PMI UFR130, AF1 @ 4 μg/mL
  MIC ATB in combination: <=0.25 μg/mL
[3]; PMI UFR130, AF1 @ 8 μg/mL
  MIC ATB in combination: <=0.25 μg/mL
[3]; PMI UFR237, AF1 @ 4 μg/mL
  MIC ATB in combination: 0.5 µg/mL
[3]; PMI UFR237, AF1 @ 8 μg/mL
  MIC ATB in combination: <=0.25 μg/mL
[3]; strain PMI UFR82 (CMY-2)
  MIC: 4 µg/mL
[3]; strain PMI UFR120 (TEM-1, SHV-11, CTX-M-14)
  MIC: ≤ 0.25 µg/mL
[3]; strain PMI UFR121 (TEM-1, TEM-52)
  MIC: 16 µg/mL
[3]; strain PMI UFR122 (TEM-1, CTX-M-15)
  MIC: 1 µg/mL
[3]; strain PMI UFR123 (CTX-M-1)
  MIC: 2 µg/mL
[3]; strain PMI UFR124 (CTX-M-2)
  MIC: 2 µg/mL
[3]; strain PMI UFR125 (CTX-M-71)
  MIC: 2 µg/mL
[3]; strain PMI UFR130 (CMY-2)
  MIC: 4 µg/mL
